Laboratory results as given in patent US10259810B2, “N-sulfonylated pyrazolo[3,4-b]pyridin-6-carboxamides and method of use” (AbbVie S.à.r.l., priority 2015, dated 2019).

Legend:
ΔF508-CFTR [1] = molecular target: T1, ΔF508-CFTR (Homo sapiens, UniProt P13569, DEL508-508); assay: CFTR cell surface levels using HRP-tagged ΔF508-CFTR expressing CFBE cells, intrinsic corrector capacity; type: cell-based; set-up: % Activation: concentration or dose not given beside the values; details: HRP-tagged ΔF508-CFTR expressing CFBE41o- cells, compound alone (intrinsic corrector capacity), 20 hours at 33° C.; for EC50: read-out: EC50
T1 construct: host or cells: CFBE41o-, doxycycline-inducible
T1 sequence (P13569 with tags, fused parts or gaps DEL508-508): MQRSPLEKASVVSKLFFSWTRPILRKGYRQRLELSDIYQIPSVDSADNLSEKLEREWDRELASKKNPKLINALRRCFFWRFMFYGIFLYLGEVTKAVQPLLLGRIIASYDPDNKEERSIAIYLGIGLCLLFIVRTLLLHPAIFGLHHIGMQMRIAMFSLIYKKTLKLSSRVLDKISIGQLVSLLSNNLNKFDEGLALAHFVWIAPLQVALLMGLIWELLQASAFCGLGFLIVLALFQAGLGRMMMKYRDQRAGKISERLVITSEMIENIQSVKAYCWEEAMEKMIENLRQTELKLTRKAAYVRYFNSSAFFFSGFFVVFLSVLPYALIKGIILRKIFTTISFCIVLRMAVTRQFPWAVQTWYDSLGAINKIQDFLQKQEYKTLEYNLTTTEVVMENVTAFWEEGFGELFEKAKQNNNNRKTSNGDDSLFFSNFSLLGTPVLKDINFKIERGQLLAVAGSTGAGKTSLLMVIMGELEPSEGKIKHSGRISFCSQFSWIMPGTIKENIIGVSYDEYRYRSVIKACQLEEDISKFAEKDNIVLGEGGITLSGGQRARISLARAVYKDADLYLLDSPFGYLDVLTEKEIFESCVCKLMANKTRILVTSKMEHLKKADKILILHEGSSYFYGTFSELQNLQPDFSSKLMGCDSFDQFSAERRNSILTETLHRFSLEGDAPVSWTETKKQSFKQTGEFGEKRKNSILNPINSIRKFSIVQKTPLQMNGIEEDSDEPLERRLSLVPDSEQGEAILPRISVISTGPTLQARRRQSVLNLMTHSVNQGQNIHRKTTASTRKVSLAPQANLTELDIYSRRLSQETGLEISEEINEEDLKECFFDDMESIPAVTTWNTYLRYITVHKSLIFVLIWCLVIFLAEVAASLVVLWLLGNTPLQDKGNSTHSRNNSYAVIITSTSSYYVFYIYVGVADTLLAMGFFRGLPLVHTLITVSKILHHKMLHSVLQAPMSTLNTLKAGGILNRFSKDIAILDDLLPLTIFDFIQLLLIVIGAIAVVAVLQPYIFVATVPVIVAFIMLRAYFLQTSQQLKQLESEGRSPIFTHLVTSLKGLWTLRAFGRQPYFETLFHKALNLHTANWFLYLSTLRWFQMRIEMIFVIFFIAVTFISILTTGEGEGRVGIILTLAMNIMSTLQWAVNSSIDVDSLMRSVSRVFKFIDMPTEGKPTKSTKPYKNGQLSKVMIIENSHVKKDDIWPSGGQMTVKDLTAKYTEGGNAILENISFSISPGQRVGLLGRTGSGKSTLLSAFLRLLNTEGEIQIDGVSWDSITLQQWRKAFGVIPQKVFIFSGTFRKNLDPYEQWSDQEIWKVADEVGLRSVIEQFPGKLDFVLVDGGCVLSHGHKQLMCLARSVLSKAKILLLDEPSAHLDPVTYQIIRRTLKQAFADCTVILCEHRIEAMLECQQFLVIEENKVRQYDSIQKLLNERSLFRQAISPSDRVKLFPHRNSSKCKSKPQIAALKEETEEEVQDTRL
Method in brief: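 Surface ΔF508-CFTR was measured as HRP chemiluminescence from an extracellular-loop-4 tag, expressed as percent activity between DMSO and a […] corrector control.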

ΔF508-CFTR [2] = molecular target: T1, ΔF508-CFTR; assay: CFTR cell surface levels using HRP-tagged ΔF508-CFTR expressing CFBE cells, in the presence of a co-corrector; type: cell-based; details: HRP-tagged ΔF508-CFTR CFBE cells, in the presence of 3 μM co-corrector; for EC50: read-out: EC50
Method in brief: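 Chemiluminescent read-out of surface HRP (15 min, dark) after PBS washes. Activity is normalized as 100×(sample−DMSO)/(3 μM co-corrector alone−DMSO).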

| SMILES | % Activation (ΔF508-CFTR [1]) | EC50 (ΔF508-CFTR [1]) | % Activation (ΔF508-CFTR [2]) | EC50 (ΔF508-CFTR [2]) |
| --- | --- | --- | --- | --- |
| O=C(NS(=O)(=O)CC(F)(F)F)c1cc(N2CCC(N3CCOCC3)CC2)c2c(C3CCC3)nn(-c3ccc(F)cc3)c2n1 [Compound 486, 3-cyclobutyl-1-(4-fluorophenyl)-4-[4-(morpholin-4-yl)piperidin-1-yl]-N-(2,2,2-trifluoroethanesulfonyl)-1H-pyrazolo[3,4-b]pyridine-6-carboxamide] | 332.5% | 467 nM | 569% | 181 nM |
| COCCS(=O)(=O)NC(=O)c1cc(N2CCC(N3CCCCC3)CC2)c2c(C3CCC3)nn(-c3ccc(F)cc3)c2n1 [Compound 488, 4-([1,4'-bipiperidin]-1'-yl)-3-cyclobutyl-1-(4-fluorophenyl)-N-(2-methoxyethanesulfonyl)-1H-pyrazolo[3,4-b]pyridine-6-carboxamide] | 246.55% | 655 nM | 488.15% | 683 nM |
| CC(C)c1nn(-c2ccnc(N3CCOCC3)c2)c2nc(C(=O)NS(=O)(=O)N(C)C)cc(OCC3CCOCC3)c12 [Compound 489, N-(dimethylsulfamoyl)-1-[2-(morpholin-4-yl)pyridin-4-yl]-4-[(oxan-4-yl)methoxy]-3-(propan-2-yl)-1H-pyrazolo[3,4-b]pyridine-6-carboxamide] | 99.6% | 141 nM | 280% | 241 nM |
| CS(=O)(=O)NC(=O)c1cc(N2CCC(N3CCOCC3)CC2)c2c(C3CCC3)nn(-c3ccnc(C4CCOCC4)c3)c2n1 [Compound 490, 3-cyclobutyl-N-(methanesulfonyl)-4-[4-(morpholin-4-yl)piperidin-1-yl]-1-[2-(oxan-4-yl)pyridin-4-yl]-1H-pyrazolo[3,4-b]pyridine-6-carboxamide] | 139.7% | 1550 nM | 303.9% | 693 nM |
| O=C(NS(=O)(=O)CCO)c1cc(N2CCC(CCN3CCOCC3)CC2)c2c(C3CCC3)nn(-c3ccc(F)cc3)c2n1 [Compound 491, 3-cyclobutyl-1-(4-fluorophenyl)-N-(2-hydroxyethanesulfonyl)-4-{4-[2-(morpholin-4-yl)ethyl]piperidin-1-yl}-1H-pyrazolo[3,4-b]pyridine-6-carboxamide] | 204.5% | 248 nM | 490.9% | 488 nM |
| COC(=O)N1CCN(C2CCN(c3cc(C(=O)NS(=O)(=O)N(C)C)nc4c3c(C3CCC3)nn4-c3ccc(F)cc3)CC2)CC1 [Compound 492, methyl 4-(1-{3-cyclobutyl-6-[(dimethylsulfamoyl)carbamoyl]-1-(4-fluorophenyl)-1H-pyrazolo[3,4-b]pyridin-4-yl}piperidin-4-yl)piperazine-1-carboxylate] | 311% | 79.9 nM | 483.4% | 43.9 nM |
| CCS(=O)(=O)NC(=O)c1cc(N2CCC(CN3CCOCC3)CC2)c2c(C3CCC3)nn(-c3ccc(F)cc3)c2n1 [Compound 494, 3-cyclobutyl-N-(ethanesulfonyl)-1-(4-fluorophenyl)-4-{4-[(morpholin-4-yl)methyl]piperidin-1-yl}-1H-pyrazolo[3,4-b]pyridine-6-carboxamide] | 315.4% | 110 nM | 551.8% | 37.1 nM |
| CCOC(=O)N1CCC(c2cc(C(=O)NS(C)(=O)=O)nc3c2c(C(C)C)nn3-c2ccc(F)cc2)CC1 [Compound 496, ethyl 4-[1-(4-fluorophenyl)-6-[(methanesulfonyl)carbamoyl]-3-(propan-2-yl)-1H-pyrazolo[3,4-b]pyridin-4-yl]piperidine-1-carboxylate] | 199.9% | 282 nM | 374.65% | 243 nM |
